Results from article PMC5285354, “Cationic Net Charge and Counter Ion Type as Antimicrobial Activity Determinant Factors of Short Lipopeptides” (Frontiers in Microbiology, 2017).
Converted amounts (≈) assume the structure as drawn.

Key:
Format in all cases: cell-based
[1] = test system: Aspergillus brasiliensis (ATCC 16404); conditions: ATCC 16404, 48 h
Procedure, shortened: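 CLSI broth microdilution: bacteria in Mueller-Hinton broth at 10^5 cfu/mL inoculum, 18 h at 37°C; fungi in Sabouraud Dextrose broth at 10^3 cfu/mL, 48 h at 25°C. MIC (μg/mL) is the lowest lipopeptide concentration inhibiting visible growth; triplicate on three days.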

[2] = test system: Bacillus subtilis (ATCC 6633); conditions: for MIC Bacillus subtillis: ATCC 6633, 18 h; for MBC Bacillus subtillis: ATCC 6633, 24 h
Procedure, shortened: (§1)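 Lowest lipopeptide concentration (μg/mL) with no observable growth gave the MIC, alongside MBC/MFC, by CLSI microbroth dilution. Fungi: Sabouraud dextrose broth, 10^3 cfu/mL start, 25°C for 48 h; bacteria: MH broth, 10^5 cfu/mL, 37°C for 18 h. Run in triplicate, three separate days.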

[3] = test system: Candida albicans (ATCC 10231); conditions: ATCC 10231, 48 h
Procedure, shortened: (§2)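 MIC in μg/mL, read as the lowest lipopeptide level with no observable growth. Microbroth dilution followed CLSI guidance, using MH broth, 10^5 cfu/mL and 18 h at 37°C for bacterial strains, or Sabouraud Dextrose broth, 10^3 cfu/mL and 48 h at 25°C for yeasts.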

[4] = test system: Candida tropicalis (PCM 2681); conditions: PCM 2681, 48 h
Procedure, shortened: as §2

[5] = test system: Enterococcus faecalis (ATCC 29212); conditions: for MBC Enterococcus fecalis, lipopeptides without TFA counter ion / MIC Enterococcus fecalis / MIC Enterococcus fecalis, lipopeptides without TFA counter ion: ATCC 29212, 18 h; for MBC Enterococcus fecalis: ATCC 29212, 24 h
Procedure, shortened: as §1

[6] = test system: Escherichia coli (ATCC 25922); conditions: for MBC Escherichia coli, lipopeptides without TFA counter ion / MIC Escherichia coli / MIC Escherichia coli, lipopeptides without TFA counter ion: ATCC 25922, 18 h; for MBC Escherichia coli: ATCC 25922, 24 h
Procedure, shortened: as §2

[7] = test system: Klebsiella pneumoniae (ATCC 700603); conditions: for MBC Klebsiella pneumoniae, lipopeptides without TFA counter ion / MIC Klebsiella pneumoniae / MIC Klebsiella pneumoniae, lipopeptides without TFA counter ion: ATCC 700603, 18 h; for MBC Klebsiella pneumoniae: ATCC 700603, 24 h
Procedure, shortened: as §2

[8] = test system: Proteus vulgaris (PCM 2668); conditions: 18 h
Procedure, shortened: as §2

[9] = test system: Pseudomonas aeruginosa (ATCC 9027); conditions: ATCC 9027, 18 h
Procedure, shortened: as §2

[10] = test system: Staphylococcus aureus (ATCC 25923); conditions: for MBC Staphylococcus aureus, lipopeptides without TFA counter ion / MIC Staphylococcus aureus / MIC Staphylococcus aureus, lipopeptides without TFA counter ion: ATCC 25923, 18 h; for MBC Staphylococcus aureus: ATCC 25923, 24 h
Procedure, shortened: as §2

[11] = test system: Staphylococcus epidermidis (PCM 2118); conditions: for MIC Staphylococcus epidermidis: PCM 2118, 18 h; for MBC Staphylococcus epidermidis: PCM 2118, 24 h
Procedure, shortened: as §1

human red blood cells = conditions: 1 h
Procedure, shortened: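 Washed donor erythrocytes (4% v/v in PBS, EDTA-anticoagulated) incubated with graded lipopeptide concentrations for 1 h at 37 °C; hemoglobin release read at 550 nm in supernatants. Scaled between 0.1% Triton X-100 (100%) and PBS (0%); MHC is the lowest concentration giving 10% hemolysis.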

[12] = test system: Pseudomonas aeruginosa (ATCC 9027); conditions: ATCC 9027, 24 h
[13] = test system: Proteus vulgaris (PCM 2668); conditions: 24 h
[14] = test system: Candida albicans (ATCC 10231)

Row | SMILES | MFC Aspergillus brasiliensis [1] | MIC Aspergillus brasiliensis [1] | MIC Bacillus subtillis [2] | MBC Bacillus subtillis [2] | MFC Candida albicans [3] | MIC Candida albicans [3] | MIC Candida albicans, lipopeptides without TFA counter ion [3] | MFC Candida tropicalis [4] | MIC Candida tropicalis [4] | MBC Enterococcus fecalis, lipopeptides without TFA counter ion [5] | MIC Enterococcus fecalis [5] | MIC Enterococcus fecalis, lipopeptides without TFA counter ion [5] | MBC Enterococcus fecalis [5] | MBC Escherichia coli, lipopeptides without TFA counter ion [6] | MIC Escherichia coli [6] | MIC Escherichia coli, lipopeptides without TFA counter ion [6] | MBC Escherichia coli [6] | MBC Klebsiella pneumoniae, lipopeptides without TFA counter ion [7] | MIC Klebsiella pneumoniae [7] | MIC Klebsiella pneumoniae, lipopeptides without TFA counter ion [7] | further results
1 | CCCCCCCCCCCCCC(=O)N[C@@H](CCCCN)C(=O)N[C@@H](CCCCN)C(=O)N[C@@H](CCCCN)C(N)=O [C14-KKK-NH2] | 64 µg/mL (≈ 105 µM) | 64 µg/mL (≈ 105 µM) | 4 µg/mL (≈ 6.54 µM) | 4 µg/mL (≈ 6.54 µM) | 128 µg/mL (≈ 209 µM) | 128 µg/mL (≈ 209 µM) | 256 µg/mL (≈ 418 µM) | 128 µg/mL (≈ 209 µM) | 128 µg/mL (≈ 209 µM) | 64 µg/mL (≈ 105 µM) | 64 µg/mL (≈ 105 µM) | 32 µg/mL (≈ 52.3 µM) | 64 µg/mL (≈ 105 µM) | 128 µg/mL (≈ 209 µM) | 128 µg/mL (≈ 209 µM) | 128 µg/mL (≈ 209 µM) | 128 µg/mL (≈ 209 µM) | 256 µg/mL (≈ 418 µM) | 128 µg/mL (≈ 209 µM) | 128 µg/mL (≈ 209 µM) | MBC Klebsiella pneumoniae [7]: 128 µg/mL (≈ 209 µM); MIC Proteus vulgaris [8]: >512 µg/mL; MIC Pseudomonas aeruginosa [9]: 32 µg/mL (≈ 52.3 µM); MBC Staphylococcus aureus, lipopeptides without TFA counter ion [10]: 32 µg/mL (≈ 52.3 µM); MIC Staphylococcus aureus [10]: 64 µg/mL (≈ 105 µM); MIC Staphylococcus aureus, lipopeptides without TFA counter ion [10]: 32 µg/mL (≈ 52.3 µM); MBC Staphylococcus aureus [10]: 64 µg/mL (≈ 105 µM); MIC Staphylococcus epidermidis [11]: 8 µg/mL (≈ 13.1 µM); MBC Staphylococcus epidermidis [11]: 8 µg/mL (≈ 13.1 µM); Hemolysis HC10 (MHC), concentration of lipopeptide inducing 10% of hemolysis (human red blood cells): 256 µg/mL; MBC Pseudomonas aeruginosa [12]: 128 µg/mL (≈ 209 µM); MBC Proteus vulgaris [13]: >512 µg/mL; MFC Candida albicans, lipopeptides without TFA counter ion [14]: 256 µg/mL (≈ 418 µM)
2 | CCCCCCCCCCCCCC(=O)N[C@@H](CCCCN)C(=O)N[C@@H](CCCCN)C(N)=O [C14-KK-NH2] | 256 µg/mL (≈ 529 µM) | 256 µg/mL (≈ 529 µM) | 4 µg/mL (≈ 8.27 µM) | 4 µg/mL (≈ 8.27 µM) | 128 µg/mL (≈ 265 µM) | 128 µg/mL (≈ 265 µM) | 256 µg/mL (≈ 529 µM) | 256 µg/mL (≈ 529 µM) | 256 µg/mL (≈ 529 µM) | 32 µg/mL (≈ 66.2 µM) | 32 µg/mL (≈ 66.2 µM) | 32 µg/mL (≈ 66.2 µM) | 64 µg/mL (≈ 132 µM) | 64 µg/mL (≈ 132 µM) | 64 µg/mL (≈ 132 µM) | 32 µg/mL (≈ 66.2 µM) | 128 µg/mL (≈ 265 µM) | 128 µg/mL (≈ 265 µM) | 128 µg/mL (≈ 265 µM) | 128 µg/mL (≈ 265 µM) | MBC Klebsiella pneumoniae [7]: 128 µg/mL (≈ 265 µM); MIC Proteus vulgaris [8]: >512 µg/mL; MIC Pseudomonas aeruginosa [9]: 32 µg/mL (≈ 66.2 µM); MBC Staphylococcus aureus, lipopeptides without TFA counter ion [10]: 64 µg/mL (≈ 132 µM); MIC Staphylococcus aureus [10]: 64 µg/mL (≈ 132 µM); MIC Staphylococcus aureus, lipopeptides without TFA counter ion [10]: 32 µg/mL (≈ 66.2 µM); MBC Staphylococcus aureus [10]: 64 µg/mL (≈ 132 µM); MIC Staphylococcus epidermidis [11]: 4 µg/mL (≈ 8.27 µM); MBC Staphylococcus epidermidis [11]: 4 µg/mL (≈ 8.27 µM); Hemolysis HC10 (MHC), concentration of lipopeptide inducing 10% of hemolysis (human red blood cells): 128 µg/mL; MBC Pseudomonas aeruginosa [12]: 64 µg/mL (≈ 132 µM); MBC Proteus vulgaris [13]: >512 µg/mL; MFC Candida albicans, lipopeptides without TFA counter ion [14]: 256 µg/mL (≈ 529 µM)
